# Measurements from US20220079948A1, “COMPOSITIONS AND METHODS FOR SUPPRESSING AND/OR TREATING HIV-INFECTION AND/OR A RELATED CLINICAL CONDITION THEREOF” (Indiana University Research And Technology Corporation, priority 2018, published 2022).
# Key:
# Type in all cases: cell-based, human
# [1] = system: S1P1 surface expression in SupT1 wildtype (SupT1) cells; assay: S1P1 cell surface staining (fluorescence cytometry), mock transfected / control SupT1 cells; settings: PAK2 inhibition (5 μM FRAX597) in mock transfected cells
# Procedure: (§1) S1P1 cell surface staining. For assessing Nef-dependent S1P1 regulations, stably transfected T cells (SupT) resulting in estrogen inducible Nef expression (Nef-ER) were used (see Lee J. H. et al. HIV Activates the Tyrosine Kinase Hck to Secrete ADAM Protease-Containing Extracellular Vesicles. EBIOMEDICINE 2018, 28:151-161). Upon treatment with tamoxifen (1 μM; established using CD4 downregulation) for 16 hours, fluorescence cytometry analysis was performed with an anti-S1P1 monoclonal antibody coupled to eFluor 660 (SW4GYPP, EBIOSCIENCE™).
# (§2) HIV-Nef Leads to S1P1 Downregulation and Impaired Migration of T cells to S1P1 Gradients. The effect of Nef on regulation of S1P1 surface expression was examined using a recombinant human T cell line (SupT1), which stably expresses a tamoxifen inducible Nef (Nef-ER). Upon treatment with tamoxifen (1 μM) for 16 hours (as established for CD4 downregulation—see e.g., Walk S. F. et al., Design and use of an inducibly activated human immunodeficiency virus type 1 Nef to study immune modulation. J VIROL 2001; 75 (2):834-843), fluorescence cytometry analysis was performed with an anti-S1P1 monoclonal antibody coupled to eFluor 660 (SW4GYPP, EBIOSCIENCE™). […] To determine whether there was a specific pathway involved in HIV-Nef dependent S1P1, downregulation, PAK2 signaling was tested. […]
# [2] = system: Nef-ER cells (SupT1) migration towards S1P gradient; assay: Migration assay through collagen I-coated transwell chambers towards S1P; settings: pretreatment with PAK2 inhibitor (5 μM); 4HT-activated Nef-ER cells; 100 nM S1P, 4 hours, 37° C.; FIG. 1B
# Procedure: Migration assay. 4-Hydroxy tamoxifen (4HT) activated SupT1 control and Nef-ER cells were labeled with 2.5 uM Calcein-AM, washed using centrifugation and resuspended in phenol red free RPMI containing 0.1% fatty acid free BSA. These cells were loaded on the top chamber of collagen I-coated 4 micron transwell chambers as previously described (see, e.g., Iino J. et al. Platelet-derived sphingosine 1-phosphate induces migration of Jurkat T cells. LIPIDS HEALTH DIS 2014, 13:150). Briefly, cells were allowed to transmigrate,
# This downregulation can lead to reduced chemotactic migration towards S1P as evidenced from experiments when 4 HT activated. SupT1I control and Nef-ER cells were tested for migration through collagen I-coated transwell chambers towards S1P gradients as previously described for Jurkat T cells (Iino J. et al. 2015).
# [3] = system: S1P1 surface expression in SupT1 cells stably expressing tamoxifen-inducible HIV-1SF2-Nef-estrogen receptor construct (Nef-ER); assay: S1P1 cell surface staining (fluorescence cytometry), tamoxifen-activated Nef-ER cells; settings: 5 μM FRAX597, Nef activated with tamoxifen (1 μM) 16 hours, FIG. 1A/1D
# Procedure: as §1, §2
structure (smiles),measurement,setting,value
CCn1c(=O)c(-c2ccc(-c3cncs3)cc2Cl)cc2cnc(Nc3ccc(N4CCN(C)CC4)cc3)nc21 [FRAX597],S1P1 surface expression,[1],downregulation of S1P1
same,S1P1 surface expression,[1]; listed as PAK2 inhibitor,downregulation of S1P
same,Migration to bottom chamber containing S1P,[2],not only restored the effect of NEF-ER but also showed significant increase in migration
same,S1P1 surface expression,[3],"not only restored S1P1 surface expression, but also increased S1P1 surface expression"
same,S1P1 surface expression,[3]; listed as FRAX 597,restored S1P1 surface expression
